{
  "source": "patent US20130202637A1",
  "about": "“Dietary Supplements Including Ellagitannins and Ellagic Acid” (priority 2012, published 2013)",
  "origin": "cited, not measured here",
  "key": {"[1]": {"system": "breast cancer"}, "[2]": {"system": "cervical cancer"}},
  "data": [
    {"smiles": "O=c1oc2c(O)c(O)cc3c(=O)oc4c(O)c(O)cc1c4c23", "note": "[ellagic acid]", "values": [
      {"measurement": "G-Arrest began", "setting": "[1]", "value": 72, "unit": "h"},
      {"measurement": "G-Arrest began", "setting": "[2]", "value": 72, "unit": "h"}
    ]}
  ]
}
